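96-well plates; 48 h exposure; 5 concentrations. Endpoints by linear interpolation between flanking doses. Not reached: highest tested concentration assigned. Here, GI50 denotes the concentration required for 50% inhibition of growth. The concentration for full growth arrest is given as TGI.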
Key:
Assay in all cases: NCI tumour cell line growth inhibition, 48 h; in the data active = GI50 below about 0.43 µM; inactive = the rest
786-0 renal = test system: 786-0 renal
A498 renal = test system: A498 renal
A549 NSCLC = test system: A549 NSCLC
ACHN renal = test system: ACHN renal
BT-549 breast = test system: BT-549 breast
CAKI-1 renal = test system: CAKI-1 renal
CCRF-CEM leukemia = test system: CCRF-CEM leukemia
COLO 205 colon = test system: COLO 205 colon
DU-145 prostate = test system: DU-145 prostate
EKVX NSCLC = test system: EKVX NSCLC
HCC-2998 colon = test system: HCC-2998 colon
HCT-116 colon = test system: HCT-116 colon
HCT-15 colon = test system: HCT-15 colon
HL-60(TB) leukemia = test system: HL-60(TB) leukemia
HOP-62 NSCLC = test system: HOP-62 NSCLC
HOP-92 NSCLC = test system: HOP-92 NSCLC
HS 578T breast = test system: HS 578T breast
HT29 colon = test system: HT29 colon
IGROV1 ovarian = test system: IGROV1 ovarian
K-562 leukemia = test system: K-562 leukemia
KM12 colon = test system: KM12 colon
LOX IMVI melanoma = test system: LOX IMVI melanoma
M14 melanoma = test system: M14 melanoma
MALME-3M melanoma = test system: MALME-3M melanoma
MCF7 breast = test system: MCF7 breast
MDA-MB-231 breast = test system: MDA-MB-231 breast
MDA-MB-435 = test system: MDA-MB-435
MOLT-4 leukemia = test system: MOLT-4 leukemia
NCI-H226 lung = test system: NCI-H226 lung
NCI-H23 lung = test system: NCI-H23 lung
NCI-H460 lung = test system: NCI-H460 lung
NCI-H522 lung = test system: NCI-H522 lung
NCI/ADR-RES ovarian = test system: NCI/ADR-RES ovarian
OVCAR-3 ovarian = test system: OVCAR-3 ovarian
OVCAR-4 ovarian = test system: OVCAR-4 ovarian
OVCAR-5 ovarian = test system: OVCAR-5 ovarian
OVCAR-8 ovarian = test system: OVCAR-8 ovarian
PC-3 prostate = test system: PC-3 prostate
RPMI-8226 leukemia = test system: RPMI-8226 leukemia
RXF 393 renal = test system: RXF 393 renal
SF-268 CNS = test system: SF-268 CNS
SF-295 CNS = test system: SF-295 CNS
SF-539 CNS = test system: SF-539 CNS
SK-MEL-2 melanoma = test system: SK-MEL-2 melanoma
SK-MEL-28 melanoma = test system: SK-MEL-28 melanoma
SK-MEL-5 melanoma = test system: SK-MEL-5 melanoma
SK-OV-3 ovarian = test system: SK-OV-3 ovarian
SN12C renal = test system: SN12C renal
SNB-19 CNS = test system: SNB-19 CNS
SNB-75 CNS = test system: SNB-75 CNS
SR leukemia = test system: SR leukemia
SW-620 colon = test system: SW-620 colon
T-47D breast = test system: T-47D breast
TK-10 renal = test system: TK-10 renal
U251 CNS = test system: U251 CNS
UACC-257 melanoma = test system: UACC-257 melanoma
UACC-62 melanoma = test system: UACC-62 melanoma
UO-31 renal = test system: UO-31 renal

O=C(NNc1nc2cc(F)cc(F)c2n2cccc12)c1ccncn1
> 30 µM: TGI (786-0 renal) | TGI (A498 renal) | TGI (A549 NSCLC) | TGI (ACHN renal) | TGI (BT-549 breast) | TGI (CAKI-1 renal) | TGI (CCRF-CEM leukemia) | TGI (COLO 205 colon) | TGI (DU-145 prostate) | TGI (EKVX NSCLC) | TGI (HCC-2998 colon) | TGI (HCT-116 colon) | TGI (HCT-15 colon) | TGI (HL-60(TB) leukemia) | TGI (HOP-62 NSCLC) | TGI (HOP-92 NSCLC) | TGI (HS 578T breast) | TGI (HT29 colon) | TGI (IGROV1 ovarian) | TGI (K-562 leukemia) | TGI (KM12 colon) | TGI (LOX IMVI melanoma) | TGI (M14 melanoma) | TGI (MALME-3M melanoma) | TGI (MCF7 breast) | TGI (MDA-MB-231 breast) | TGI (MDA-MB-435) | TGI (MOLT-4 leukemia) | TGI (NCI-H226 lung) | TGI (NCI-H23 lung) | TGI (NCI-H460 lung) | TGI (NCI-H522 lung) | TGI (NCI/ADR-RES ovarian) | TGI (OVCAR-3 ovarian) | TGI (OVCAR-4 ovarian) | TGI (OVCAR-5 ovarian) | TGI (OVCAR-8 ovarian) | TGI (PC-3 prostate) | TGI (RPMI-8226 leukemia) | TGI (RXF 393 renal) | TGI (SF-268 CNS) | TGI (SF-295 CNS) | TGI (SF-539 CNS) | TGI (SK-MEL-2 melanoma) | TGI (SK-MEL-28 melanoma) | TGI (SK-MEL-5 melanoma) | TGI (SK-OV-3 ovarian) | TGI (SN12C renal) | TGI (SNB-19 CNS) | TGI (SNB-75 CNS) | TGI (SR leukemia) | TGI (SW-620 colon) | TGI (T-47D breast) | TGI (TK-10 renal) | TGI (U251 CNS) | TGI (UACC-257 melanoma) | TGI (UACC-62 melanoma) | TGI (UO-31 renal)
inactive: GI50 (786-0 renal) > 30 µM | GI50 (A498 renal) > 30 µM | GI50 (A549 NSCLC) > 30 µM | GI50 (ACHN renal) > 30 µM | GI50 (BT-549 breast) > 30 µM | GI50 (CAKI-1 renal) > 30 µM | GI50 (CCRF-CEM leukemia) > 30 µM | GI50 (COLO 205 colon) > 30 µM | GI50 (DU-145 prostate) > 30 µM | GI50 (EKVX NSCLC) > 30 µM | GI50 (HCC-2998 colon) > 30 µM | GI50 (HCT-116 colon) > 30 µM | GI50 (HCT-15 colon) > 30 µM | GI50 (HL-60(TB) leukemia) > 30 µM | GI50 (HOP-62 NSCLC) > 30 µM | GI50 (HOP-92 NSCLC) > 30 µM | GI50 (HS 578T breast) > 30 µM | GI50 (HT29 colon) > 30 µM | GI50 (IGROV1 ovarian) > 30 µM | GI50 (K-562 leukemia) > 30 µM | GI50 (KM12 colon) > 30 µM | GI50 (LOX IMVI melanoma) > 30 µM | GI50 (M14 melanoma) > 30 µM | GI50 (MALME-3M melanoma) > 30 µM | GI50 (MCF7 breast) > 30 µM | GI50 (MDA-MB-231 breast) > 30 µM | GI50 (MDA-MB-435) > 30 µM | GI50 (MOLT-4 leukemia) > 30 µM | GI50 (NCI-H226 lung) > 30 µM | GI50 (NCI-H23 lung) > 30 µM | GI50 (NCI-H460 lung) > 30 µM | GI50 (NCI-H522 lung) > 30 µM | GI50 (NCI/ADR-RES ovarian) > 30 µM | GI50 (OVCAR-3 ovarian) > 30 µM | GI50 (OVCAR-4 ovarian) > 30 µM | GI50 (OVCAR-5 ovarian) > 30 µM | GI50 (OVCAR-8 ovarian) > 30 µM | GI50 (PC-3 prostate) > 30 µM | GI50 (RPMI-8226 leukemia) > 30 µM | GI50 (RXF 393 renal) > 30 µM | GI50 (SF-268 CNS) > 30 µM | GI50 (SF-295 CNS) > 30 µM | GI50 (SF-539 CNS) > 30 µM | GI50 (SK-MEL-2 melanoma) > 30 µM | GI50 (SK-MEL-28 melanoma) > 30 µM | GI50 (SK-MEL-5 melanoma) > 30 µM | GI50 (SK-OV-3 ovarian) > 30 µM | GI50 (SN12C renal) > 30 µM | GI50 (SNB-19 CNS) > 30 µM | GI50 (SNB-75 CNS) > 30 µM | GI50 (SR leukemia) > 30 µM | GI50 (SW-620 colon) > 30 µM | GI50 (T-47D breast) > 30 µM | GI50 (TK-10 renal) > 30 µM | GI50 (U251 CNS) > 30 µM | GI50 (UACC-257 melanoma) > 30 µM | GI50 (UACC-62 melanoma) > 30 µM | GI50 (UO-31 renal) > 30 µM

Source: PubChem BioAssay (NCI)
